Results published in patent publication US20200291018A1, “TAM KINASE INHIBITORS” (SYROS PHARMACEUTICALS, INC., priority 2017, published 2020).

What was measured:
MERTK = molecular target: T1, MERTK (Homo sapiens, UniProt Q12866); experiment: TR-FRET kinase activity assay, MERTK; format: biochemical; conditions: for IC50: TR-FRET activity assay, ATP at Km, 60 minutes, read-out: Mer IC50; for Mer/Flt3 ratio (FLT3 IC50/Mer IC50): ratio calculated as FLT3 IC50/Mer IC50
T1 sequence (Q12866 21-999): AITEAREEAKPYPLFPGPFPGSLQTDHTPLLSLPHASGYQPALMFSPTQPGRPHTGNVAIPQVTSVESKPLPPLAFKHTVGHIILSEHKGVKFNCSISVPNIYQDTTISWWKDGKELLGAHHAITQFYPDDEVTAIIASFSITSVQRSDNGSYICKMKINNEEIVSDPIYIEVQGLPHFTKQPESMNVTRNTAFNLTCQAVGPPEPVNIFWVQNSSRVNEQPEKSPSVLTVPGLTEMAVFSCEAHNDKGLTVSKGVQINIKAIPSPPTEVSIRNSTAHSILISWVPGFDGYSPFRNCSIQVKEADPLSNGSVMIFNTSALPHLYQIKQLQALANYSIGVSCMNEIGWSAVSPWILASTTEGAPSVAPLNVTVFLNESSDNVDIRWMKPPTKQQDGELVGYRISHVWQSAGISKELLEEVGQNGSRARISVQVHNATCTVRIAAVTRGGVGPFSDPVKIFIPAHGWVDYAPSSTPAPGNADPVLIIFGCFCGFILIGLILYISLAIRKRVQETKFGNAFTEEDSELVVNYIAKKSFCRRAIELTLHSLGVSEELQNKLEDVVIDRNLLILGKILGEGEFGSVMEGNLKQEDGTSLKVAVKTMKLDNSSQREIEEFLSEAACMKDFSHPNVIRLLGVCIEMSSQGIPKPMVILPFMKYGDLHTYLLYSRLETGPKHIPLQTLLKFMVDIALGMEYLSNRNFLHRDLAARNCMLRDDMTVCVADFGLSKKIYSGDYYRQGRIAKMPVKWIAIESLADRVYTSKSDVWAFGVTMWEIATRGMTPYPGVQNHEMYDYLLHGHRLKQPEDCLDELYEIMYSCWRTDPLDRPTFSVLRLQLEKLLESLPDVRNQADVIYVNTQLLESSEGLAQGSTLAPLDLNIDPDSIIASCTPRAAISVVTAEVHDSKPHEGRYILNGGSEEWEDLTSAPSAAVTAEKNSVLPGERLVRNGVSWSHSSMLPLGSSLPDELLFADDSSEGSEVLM
How it was run: (§1)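 IC50 came from TR-FRET signal after 30 min dark development with a Europium-labeled phospho-specific antibody. This followed a 60 min RT reaction, stopped with EDTA, started with ATP at Km per enzyme. Peptide substrate, enzyme and compound were premixed in HEPES pH 7.5 buffer with MgCl2, EGTA, Brij 35 and DTT.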

AXL = molecular target: T2, AXL (Homo sapiens, UniProt P30530); experiment: TR-FRET kinase activity assay, AXL; format: biochemical; conditions: ATP at Km, 60 minutes
T2 sequence (P30530 26-894): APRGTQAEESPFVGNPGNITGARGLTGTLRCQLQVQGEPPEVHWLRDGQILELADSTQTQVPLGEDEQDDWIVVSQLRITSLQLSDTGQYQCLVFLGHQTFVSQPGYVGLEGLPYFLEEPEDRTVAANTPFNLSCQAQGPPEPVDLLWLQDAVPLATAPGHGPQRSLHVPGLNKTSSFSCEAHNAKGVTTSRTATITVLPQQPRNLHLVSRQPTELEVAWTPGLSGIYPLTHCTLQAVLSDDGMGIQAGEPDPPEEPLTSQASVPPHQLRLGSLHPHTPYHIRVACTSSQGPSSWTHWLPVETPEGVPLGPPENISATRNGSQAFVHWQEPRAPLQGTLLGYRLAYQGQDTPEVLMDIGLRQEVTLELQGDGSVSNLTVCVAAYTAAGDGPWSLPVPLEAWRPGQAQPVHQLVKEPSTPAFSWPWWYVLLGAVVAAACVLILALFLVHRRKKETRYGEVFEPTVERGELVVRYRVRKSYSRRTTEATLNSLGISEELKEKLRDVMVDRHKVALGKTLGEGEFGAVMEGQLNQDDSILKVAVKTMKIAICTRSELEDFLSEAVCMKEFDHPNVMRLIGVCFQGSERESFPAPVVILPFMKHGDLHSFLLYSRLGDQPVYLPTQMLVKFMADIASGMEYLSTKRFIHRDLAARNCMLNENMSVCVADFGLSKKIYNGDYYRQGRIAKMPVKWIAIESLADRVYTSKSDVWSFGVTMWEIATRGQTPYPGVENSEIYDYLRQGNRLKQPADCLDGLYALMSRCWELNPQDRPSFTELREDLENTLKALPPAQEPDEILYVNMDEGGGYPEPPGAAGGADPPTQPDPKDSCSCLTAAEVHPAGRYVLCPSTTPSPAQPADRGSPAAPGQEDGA
How it was run: as §1

IC50 (MERTK) [nM]	Mer/Flt3 ratio (FLT3 IC50/Mer IC50) (MERTK)	IC50 (AXL) [nM]	SMILES
≤ 100	+++ (a ratio of >100)	≤ 100	C[C@@H](CC(F)(F)F)Nc1ncc2c(O[C@H]3C[C@@H](O)C3)ncc([C@H]3CC[C@](C)(O)CC3)c2n1 [Compound 423]
≤ 100	+++ (a ratio of >100)	≤ 100	COCCN1C(C)(C)CC(Oc2ncc([C@H]3CC[C@H](O)CC3)c3nc(N[C@@H](C)CC(F)(F)F)ncc23)CC1(C)C [Compound 355]
≤ 100	NS (a ratio of ≤2.0)	≤ 100	NC(=O)c1ccc(Nc2ncc3c(OC4CCOCC4)ncc([C@H]4CC[C@H](O)CC4)c3n2)cc1 [Compound 399]
100 to 1000	++ (a ratio of between 10 and 100)	1000 to 10000	COC[C@H](C)Nc1ncc2c(O[C@H]3C[C@@H](O)C3)ncc(-c3ccnnc3)c2n1 [Compound 425]
≤ 100	+++ (a ratio of >100)	100 to 1000	CCOc1ncc([C@H]2CC[C@H](O)CC2)c2nc(N[C@@H](C)CC(F)(F)F)ncc12 [Compound 359]
≤ 100	+++ (a ratio of >100)	100 to 1000	C[C@@H](CC(F)(F)F)Nc1ncc2c(OC3CCN(c4ncccn4)CC3)ncc([C@H]3CC[C@H](O)CC3)c2n1 [Compound 373]
≤ 100	+++ (a ratio of >100)	≤ 100	CO[C@H]1C[C@@H]1Nc1ncc2c(O[C@H]3C[C@@H](O)C3)ncc([C@H]3CC[C@H](O)CC3)c2n1 [Compound 417]
≤ 100	+++ (a ratio of >100)	100 to 1000	COC[C@H](C)Nc1ncc2c(O[C@H]3C[C@@H](C(=O)N4CCN(C)CC4)C3)ncc([C@H]3CC[C@H](O)CC3)c2n1 [Compound 393]
≤ 100	+++ (a ratio of >100)	1000 to 10000	COC[C@H](C)Nc1ncc2c(OC3CCOCC3)ncc(-c3ccc(C#N)cc3)c2n1 [Compound 396]
≤ 100	++ (a ratio of between 10 and 100)	≤ 100	O=C(O)c1ccc(Nc2ncc3c(OC4CCOCC4)ncc([C@H]4CC[C@H](O)CC4)c3n2)cc1 [Compound 397]
≤ 100	+++ (a ratio of >100)	100 to 1000	COC[C@H](C)Nc1ncc2c(OC3C[C@H](C)N(C)[C@@H](C)C3)ncc([C@H]3CC[C@H](O)CC3)c2n1 (stereo partly drawn) [Compound 387]
≤ 100	+++ (a ratio of >100)	1000 to 10000	COC[C@H](C)Nc1ncc2c(O[C@@H]3CCN(C)C3)ncc([C@H]3CC[C@H](O)CC3)c2n1 [Compound 366]
≤ 100	NS (a ratio of ≤2.0)	100 to 1000	CCCCNc1ncc2c(OCCOC)ncc([C@H]3CC[C@H](O)CC3)c2n1 [Compound 125]
≤ 100	+++ (a ratio of >100)	1000 to 10000	COCC(=O)N1C(C)(C)CC(Oc2ncc([C@H]3CC[C@H](O)CC3)c3nc(N[C@@H](C)CC(F)(F)F)ncc23)CC1(C)C [Compound 377]
100 to 1000	++ (a ratio of between 10 and 100)	1000 to 10000	COC[C@H](C)Nc1ncc2c(C(F)(F)F)ncc([C@H]3CC[C@H](O)CC3)c2n1 [Compound 403]
≤ 100	+++ (a ratio of >100)	100 to 1000	C[C@@H](CC(F)(F)F)Nc1ncc2c(OC3CCN([C@H]4CCOC4)CC3)ncc([C@H]3CC[C@H](O)CC3)c2n1 [Compound 383]
≤ 100	+++ (a ratio of >100)	≤ 100	C[C@@H](CC(F)(F)F)Nc1ncc2c(OC3CC(C)(C)N(C[C@@H]4CCCO4)C(C)(C)C3)ncc([C@H]3CC[C@H](O)CC3)c2n1 [Compound 418]
≤ 100	+++ (a ratio of >100)	≤ 100	COCCN1C(C)(C)CC(Oc2ncc([C@H]3CC[C@H](O)CC3)c3nc(N[C@@H](C)CF)ncc23)CC1(C)C [Compound 381]
≤ 100	+++ (a ratio of >100)	100 to 1000	Cc1nccc(N2CCC(Oc3ncc([C@H]4CC[C@H](O)CC4)c4nc(N[C@@H](C)CC(F)(F)F)ncc34)CC2)n1 [Compound 375]

SMILES	IC50 (MERTK) [nM]	Mer/Flt3 ratio (FLT3 IC50/Mer IC50) (MERTK)	IC50 (AXL) [nM]
C[C@@H](CC(F)(F)F)Nc1ncc2c(O[C@@H]3C[C@H]4CC[C@@H](C3)N4[C@H]3CCOC3)ncc([C@H]3CC[C@H](O)CC3)c2n1 [Compound 413]	≤ 100	+++ (a ratio of >100)	≤ 100
C[C@@H](CC(F)(F)F)Nc1ncc2c(O[C@@H]3C[C@H]4CC[C@@H](C3)N4C[C@@H]3CCCO3)ncc([C@H]3CC[C@H](O)CC3)c2n1 [Compound 421]	≤ 100	+++ (a ratio of >100)	≤ 100
C[C@@H](CC(F)(F)F)Nc1ncc2c(OC3C[C@H]4CC[C@@H](C3)N4C)ncc([C@H]3CC[C@H](O)CC3)c2n1 (stereo partly drawn) [Compound 370]	≤ 100	+++ (a ratio of >100)	≤ 100
